Results taken from ChEMBL document CHEMBL5726559, “Aryl, heteroaryl, and heterocyclic compounds for treatment of complement mediated disorders” (2017).

Target: Complement factor D (Homo sapiens, UniProt P00746)
Assay: Factor D Assay: Human factor D (purified from human serum, Complement Technology, Inc.) at 80 nM final concentration is incubated with test compound at various concentrations for 5 minutes at room temperature in 50 mM Tris, 1M NaCl, pH 7.5. A synthetic substrate Z-L-Lys-SBzl and DTNB (Ellman's reagent) are added to final concentrations of 100 μM each. The increase in color is recorded at OD405 nm in a microplate in kinetic mode over 30 minutes with 30 second time points in a spectrofluorimeter. IC50 values are calculated by non-linear regression from the percentage of inhibition of complement factor D activity as a function of test compound concentration.

Chain of Complement factor D (P00746 whole entry): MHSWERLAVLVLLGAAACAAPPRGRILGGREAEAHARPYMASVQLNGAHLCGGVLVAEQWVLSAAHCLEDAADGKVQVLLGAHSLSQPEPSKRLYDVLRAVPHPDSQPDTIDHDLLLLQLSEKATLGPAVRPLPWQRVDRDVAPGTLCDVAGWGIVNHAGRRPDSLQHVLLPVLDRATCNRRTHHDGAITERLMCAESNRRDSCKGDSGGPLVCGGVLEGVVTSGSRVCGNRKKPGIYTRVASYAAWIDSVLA

Row | Compound | IC50 [µM]
1 | NC(=O)c1nn(CC(=O)N2C[C@H](F)C[C@H]2C(=O)Nc2cccc(Cl)n2)c2ccc(-c3ccnnc3)cc12 | < 1
2 | CC(=O)c1cn(CC(=O)N2C[C@H](F)C[C@H]2C(=O)Nc2cccc(Br)n2)c2ccc(-c3ccc(C)nn3)cc12 | < 1
3 | CC(=O)c1cn(CC(=O)N2C[C@H](F)C[C@H]2C(=O)Nc2cccc(Cl)n2)c2ccc(-c3ccnnc3)cc12 | < 1
